This note sets out measurements from patent US7220764B2, “Sphingosine kinase inhibitors” (The Pennsylvania State University Research Foundation, priority 2002, dated 2007).

Data set [1] has as its target T1, recombinant human SK (Homo sapiens, UniProt Q9NYA1).
T1 construct: glutathione-S-transferase (GST); made in house; host or cells: bacteria (PGEX bacterial expression vector, Pharmacia)
The data set can be described thus: Sphingosine kinase screen / inhibition of recombinant human SK ([3H]sphingosine to [3H]S1P). Type of data set: biochemical. The settings on record: for inhibition at 5 µg/mL: read-out: inhibited SK activity by %; for IC50: mean ± SD of triplicate experiments, read-out: SK, concentration required to inhibit enzyme activity by 50%. As for the experimental part:
This method involved incubating [^3H]sphingosine with 1 mM ATP under conditions defined in the reference, followed by extraction of the assay mixture with chloroform:methanol (2:1) under basic conditions. […] Radioactivity in aliquots of the aqueous phase was then quantified as a measure of [^3H]S1P formation.
Varying concentrations of the indicated compounds were evaluated for inhibition of recombinant human SK as described above.

Data set [2] concerns the target PKCα (Homo sapiens, UniProt P17252). Description: Kinase selectivity panel: PKCα. Type of data set: biochemical. As to conditions: for IC50: human isoform, mean ± SD of triplicate experiments, read-out: PKCα, concentration required to inhibit enzyme activity by 50%. On the procedure: (§1) Thus potencies of each inhibitor were determined for human isoforms of ERK2, PI3K and PKCα. SK inhibition data is provided for comparison. Data represent the concentrations required to inhibit enzyme activity by 50%, and are the mean ±SD of triplicate experiments. Results designated as “None” indicate that no inhibition was detected at concentrations up to 60 μM.

In data set [3] the test system is T-24 human bladder carcinoma cells. The data set can be described thus: Cytotoxicity, SRB binding assay, T24. Type of data set: cell-based. As to conditions: 48 h treatment, mean ± SD. As for the experimental part: (§2) The SK inhibitor compounds of the invention are antiproliferative and induce apoptosis in replicating cells. In order to assess the compounds' efficacy in intact cells, the compounds were evaluated for cytotoxicity using a panel of human cancer cell lines. These experiments followed methods that have been extensively used (see for, example, Smith et al., Cancer Res. 54: 3779–3784 (1994); Smith et al., Oncology Res. 6: 211–218 (1994); and Lawrence et al., J. Med. Chem. 44: 594–601 (2001). Cell lines tested included T-24 human bladder carcinoma cells, MCF-7 human breast adenocarcinoma cells, MCF-7/VP cells, which are a subline of MCF-7 cells that is resistant to several anticancer drugs due to overexpression of the transport protein MRP 1, and NCI/ADR, a cell line resistant to many anticancer drugs due to overexpression of the drug transporter P-glycoprotein.
(§3) The indicated cell lines were treated with varying doses of compounds 1–4 for 48 h. Cell survival was then determined using the SRB binding assay (Skehan et al., 1990, J. Natl. Cancer Inst. 82: 1107–1112), and the concentration of compound that inhibited proliferation by 50% was calculated. Values represent the mean ±SD for replicate samples.
(§4) As these transporters are often overexpressed in tumor cells, particularly after the patient has been treated with cytotoxic drugs, the SK inhibiting compounds of the invention are effective therapeutic agents for resistant tumors.
A general note: In SRB staining, fixed cells bind dye roughly in proportion to their protein.

The target in data set [4] is ERK2 (Homo sapiens, UniProt P28482). The data set can be described thus: Kinase selectivity panel: ERK2. Type of data set: biochemical. The settings on record: for IC50: human isoform, mean ± SD of triplicate experiments, read-out: ERK2, concentration required to inhibit enzyme activity by 50%. On the procedure: as §1
Chain of ERK2 (P28482 whole entry, canonical isoform): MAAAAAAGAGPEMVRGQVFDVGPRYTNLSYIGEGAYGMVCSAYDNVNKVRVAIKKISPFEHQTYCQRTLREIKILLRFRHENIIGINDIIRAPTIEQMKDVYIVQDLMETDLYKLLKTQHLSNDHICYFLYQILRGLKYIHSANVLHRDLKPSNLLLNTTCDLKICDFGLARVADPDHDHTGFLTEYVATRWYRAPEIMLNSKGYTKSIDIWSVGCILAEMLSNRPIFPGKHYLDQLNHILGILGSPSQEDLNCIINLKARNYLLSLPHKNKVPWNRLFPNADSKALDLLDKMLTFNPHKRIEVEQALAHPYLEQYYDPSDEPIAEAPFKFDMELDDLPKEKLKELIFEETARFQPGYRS
The target in data set [5] is T2, PI3K.
T2 construct: other: human isoform; mean ± SD of triplicate experimen; activity toward PI3K (in words)
Description: Kinase selectivity panel: PI3K (lipid kinase). Type of data set: biochemical, human. The settings on record: for IC50: human isoform, mean ± SD of triplicate experiments, read-out: PI3K, concentration required to inhibit enzyme activity by 50%. On the procedure: Thus potencies of each inhibitor were determined for human isoforms of ERK2, PI3K and PKCα. […] Data represent the concentrations required to inhibit enzyme activity by 50%, and are the mean ±SD of triplicate experiments. Results designated as “None” indicate that no inhibition was detected at concentrations up to 60 μM.

The subject of data set [6] is NCI/ADR cells (P-glycoprotein overexpression). The data set can be described thus: Cytotoxicity, SRB binding assay, NCI/ADR. In kind it is cell-based. As to conditions: Homo sapiens, NCI/ADR-RES, 48 h treatment, mean ± SD. On the procedure:
as §2, §3, §4

In data set [7] the test system is MCF-7/VP cells (MRP 1 overexpression). The data set can be described thus: Cytotoxicity, SRB binding assay, MCF-7/VP. Type of data set: cell-based. As to conditions: Homo sapiens, MCF7-VP, 48 h treatment, mean ± SD. As for the experimental part: as §2, §3, §4
The test system of data set [8] is MCF-7 human breast adenocarcinoma cells. Description: Cytotoxicity, SRB binding assay, MCF-7. In kind it is cell-based. The settings on record: MCF7, 48 h treatment, mean ± SD. On the procedure:
as §2, §3, §4

Data set [9] concerns mouse JC mammary adenocarcinoma cells. Description: Antitumor activity in syngeneic tumor model. In kind it is in vivo, Balb/c mice. The settings on record: 75 mg/kg intraperitoneally on days 1, 5, 9 and 15. As for the experimental part:
These cells express elevated levels of SK activity relative to non-transformed cells, as well as the multidrug resistance phenotype due to P-glycoprotein activity (data not shown). Balb/c mice, 6–8 weeks old, were injected subcutaneously with […] suspended in PBS. […] The insert indicates the body weight of the animals during this experiment.

[10] abbreviates: 5 μg/ml of compound (corresponds to 10–25 μM), 1 mM ATP.

Counter-ions that a name gives are not always drawn. Like-named read-outs stand apart in the source and are kept apart here.

T1 sequence (Q9NYA1 whole entry): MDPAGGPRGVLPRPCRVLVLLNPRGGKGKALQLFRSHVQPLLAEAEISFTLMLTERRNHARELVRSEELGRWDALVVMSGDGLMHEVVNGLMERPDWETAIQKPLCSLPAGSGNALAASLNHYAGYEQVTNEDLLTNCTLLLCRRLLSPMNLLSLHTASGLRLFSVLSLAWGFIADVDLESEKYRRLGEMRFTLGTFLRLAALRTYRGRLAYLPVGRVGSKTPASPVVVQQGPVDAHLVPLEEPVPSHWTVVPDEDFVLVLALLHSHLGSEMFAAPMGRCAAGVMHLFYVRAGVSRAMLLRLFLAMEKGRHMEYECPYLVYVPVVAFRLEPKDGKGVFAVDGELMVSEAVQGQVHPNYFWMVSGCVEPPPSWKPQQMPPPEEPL

As to `CCOc1ccc2c(c1)NC(C)(C)c1ss/c(=N/c3ccc(O)cc3)c1-2` [Compound 10, 4-(7-Ethoxy-4,4-dimethyl-4,5-dihydro-2,3-dithia-5-aza-cyclopenta [α]naphthalen-1-ylideneamino)-phenol], the inhibition at 5 µg/mL in data set [1] (setting [10]) is 81%.
For the molecule `CCCCCCCCCCCCC/C=C/[C@@H](O)[C@H](CO)N(C)C` [dimethylsphingosine, reference compound], in data set [1] (at concentrations above 25 μM), the “inhibition of SK activity by positive control” value is “completely inhibited”.
Turning to `COc1ccc(-n2c(SCC(=O)Nc3nc4ccccc4s3)nc(O)cc2=O)cc1` [Compound 6, N-Benzothiazol-2-yl-2-[4-hydroxy-1-(4-methoxy-phenyl)-6-oxo-1,6-dihydro-pyrimidin-2-ylsulfanyl]-acetamide], the inhibition at 5 µg/mL in [1] (setting [10]) was 91%.
In the case of `Cc1cc2nc3s/c(=C\c4cc(I)cc(I)c4O)c(=O)n3c2cc1C` [Compound 8, 2-(2-Hydroxy-3,5-diiodo-benzylidene)-6,7-dimethyl-benzo[4,5] imidazo [2,1-b] thiazol-3-one], the inhibition at 5 µg/mL in data set [1] (setting [10]) was 98%.
On the same count and under the same terms, with `O=S(=O)(c1ccc(O)cc1)c1ccc(O)c(C23CC4CC(CC(C4)C2)C3)c1` [Compound 7, 2-(1-adamantyl)-4-[(4-oxidophenyl)sulfonyl]benzenolate disodium salt] the figure was 91%; with `O=C(/C=C(O)/C(O)=C/C(=O)c1ccccc1)c1ccccc1` [Compound 11, 3,4 -Dihydroxy-1,6-diphenyl-hexa-2,4-diene-1,6-dione], 98%.
In the case of `N#C/C(=C\c1ccc(O)c(O)c1)c1nc(-c2ccc3c(c2)OCO3)cs1` [Compound 9, 2-(4-Benzo[1,3]dioxol-5-yl-thiazol-2-yl)-3-(3,4-dihydroxy-phenyl)-acrylonitrile], in data set [1] (setting [10]), the inhibition at 5 µg/mL was determined as 94%.
As to `CCc1cc2c(s1)[S][Zn]1([N]=C2)[N]=Cc2cc(CC)sc2[S]1` [Compound 12], in [1], the inhibition at 5 µg/mL came out at 87%.
In the case of `O=C(N/N=C/c1c(O)ccc2ccccc12)c1cc(-c2ccc3ccccc3c2)n[nH]1` [Compound 2, 5-Naphthalen-2-yl-2H-pyrazole-3-carboxylic acid (2-hydroxy-naphthalen-1-ylmethylene)-hydrazide], the IC50 is 1.2 ± 0.3 µM in [1]; more than 60 µM in data set [2]; 1.1 ± 1.2 µM in data set [3]; 11 ± 1 µM in data set [4]; more than 60 µM in data set [5]; 0.8 ± 1.3 µM in data set [6]. The IC50 in [7] came out at 2.9 ± 2 µM; in data set [8], 0.4 µM. Also, in data set [1], the inhibition at 5 µg/mL amounted to 85%. Besides, in [4] (ERK2 versus SK), the “fold less potent toward ERK2 than SK” value is reported as 10 fold.
Consider `O=C1/C(=C/c2ccc(O)c(O)c2)Oc2ccccc21` [Compound 5, 2-(3,4-Dihydroxy-benzylidene)-benzofuran-3-one], for which, in data set [9], the “difference in body weights versus control group” value is “No significant difference”. The “tumor growth decreased versus control animals” value in data set [9] (day 18, volume relative to day 1) is recorded as more than 50%. Also, in data set [2], the IC50 is more than 60 µM. Further, in data set [4], the “activity toward ERK2 (in words)” value is on record as “weak activity” and the IC50 amounted to 80 ± 4 µM. In addition, the “activity toward PI3K (in words)” value in [5] is given as “moderate activity”.
Turning to `COc1ccc(N2C(=O)/C(=C\c3ccc(O)cc3O)SC2=S)cc1` [Compound 1, 5-(2,4-Dihydroxy-benzylidene)-3-(4-methoxy-phenyl)-2-thioxo-thiazolidin-4-one], the inhibition at 5 µg/mL in [1] (setting [10]) was determined as 99%. Further, the IC50 was 2.5 ± 0.7 µM in data set [1]; more than 60 µM in data set [2]; 5.8 ± 1.5 µM in data set [3]; 26 ± 2 µM in [4]; 42 ± 10 µM in [5]; 6.2 ± 1.5 µM in data set [6]. Further, the values for the IC50 in data set [7] and in [8] were 24.6 ± 1.9 µM and 6.8 ± 1.5 µM, respectively.
In the case of `Oc1ccc(Nc2nc(-c3ccc(Cl)cc3)cs2)cc1` [Compound 3, 4-[4-(4-Chloro-phenyl)-thiazol-2-ylamino]-phenol], in data set [1] (setting [10]), the inhibition at 5 µg/mL was found to be 99%. Also, the “inhibition of PKCα (in words)” value in data set [2] was “no inhibition was seen”. The IC50 in data set [2] is more than 60 µM; in data set [3], 4.6 ± 1.6 µM; in [4], more than 60 µM; in data set [5] it was more than 60 µM; in data set [6] it was 1.3 ± 1.1 µM; in [7] it was 0.9 ± 1.8 µM. In addition, the IC50 in data set [8] came to 1.2 ± 1.3 µM. In addition, the “activity toward ERK2 (in words)” value in data set [4] was “no inhibition was seen”. Also, the “activity toward PI3K (in words)” value in [5] was “no inhibition was seen”.
As for `O=C1/C(=C/c2ccc(O)c(O)c2)Sc2ccccc21` [Compound 4, 2-(3,4-Dihydroxy-benzylidene)-benzo [b] thiophen-3-one], the inhibition at 5 µg/mL in data set [1] (setting [10]) is 89%. The IC50 in data set [1] was 0.6 ± 0.1 µM; in [2], more than 60 µM; in data set [3], 7.8 ± 2 µM; in data set [4], 40 ± 5 µM; in data set [5], 7 ± 2 µM; in data set [6], 1.2 ± 2.4 µM. Besides, the IC50 in data set [7] was 1.8 ± 1.1 µM; in [8], 1 ± 1.7 µM. Also, the “activity toward ERK2 (in words)” value in data set [4] is on record as “weak activity”. In data set [5], the “activity toward PI3K (in words)” value is listed as “moderate activity”.
